# Test results reported in patent publication US20250275953A1, “VODOBATINIB FOR REDUCING PROGRESSION OF PARKINSON'S DISEASE” (Sun Pharma Advanced Research Company Ltd., priority 2022, published 2025).
# Read-outs that look alike come from different tables or passages of the source.
# Assay: CSF pharmacokinetics on Day 7, healthy volunteers
# Type: in vivo, human
# Conditions: for CSF AUC0-24 AM / CSF AUC0-24 GM / CSF AUC0-24 Median / CSF Cmax AM / CSF Cmax GM / CSF Cmax Median / Tmax: Day 7, CSF, healthy volunteers; for Cmax, CSF/IC50: IC50 0.9 nM; for Tmax: male, human, CSF, oral
# Description: CSF Assessment: On the morning of Day 7, local anesthetic (e.g., lidocaine 2% with epinephrine) was administered subcutaneously at the site of lumbar puncture. An indwelling intrathecal catheter was inserted at the lumbar region (L3-L5) by a trained and experienced anesthesiologist (i.e., using an epidural tray, 17G or 20/22G Tuohy needle and catheter over needle system). A CSF sample was collected for safety labs (i.e., cell count, glucose, protein). Serial CSF samples were then collected through the spinal catheter and tubing connected to a fractional collection system (i.e., peristaltic pump). The CSF samples (8 mL) were collected at a flow rate of 0.5 mL/min over a 16-minute period at pre-dose, and at 0.5 h, 1.0 h, 1.5 h, 2 h, 2.5 h, 3 h, 4 h, 6 h, 8 h, 12 h and 24 h post-dose. The first 2 mL of CSF was discarded, and the 6 mL remainder was used for the PK study.
# The plasma and CSF samples were analyzed, by validated LC/MS-MS methods. PK analysis was conducted based on PK/PP Population: Cmax, AUC0-t, AUC0-24, AUC0-∞, Tmax, Cavg, CL/F, Cmin, t1/2, Kel, Vd (V/F; Vd/F), and Vss/F. Model-independent plasma PK parameters (Cmax, Tmax, t1/2, AUC0-t, AUC0-24, AUC0-∞, Cavg, CL/F, Vss/F, Vd/F), after the first dose (Day 1) and last dose (Day 7), Cmin on Days 2-7) was listed by subject and summarized by study cohort. In addition to the descriptive statistics listed above, geometric means was reported for the pivotal PK endpoints (CL/F, Vss/F, Vd/F, Cmin, Cavg, AUC0-t, AUC0-24, AUC0-∞, and Cmax). For CSF, PK parameters (Cmax, Tmax, t1/2, AUC0-t, AUC0-24, Cmin, Cavg, CL/F, Vss/F) was listed by subject and summarized by cohort. Ratios of CSF: plasma concentration at each time point was listed by subject and summarized by study cohort.
# Forty-one healthy adult male volunteers aged 18 to 45 with body mass indexes (BMI)≥18 to ≤30 Kg/m^2 and total body weight >50 kg (110 lb) were screened in order to enroll 19 subjects with an average age of 34.2 years (range 21.5-45.6 years) into this study Six participants were randomly assigned to the 48 and 192 mg cohorts, and seven participants were assigned to the 384 mg cohort. After an overnight fast, participants received once daily doses of vodobatinib as capsules for 7 days. Serial PK blood samples to measure vodobatinib plasma concentrations were collected at pre-dose and at 0.25, 0.5, 1, 1.5, 2, 2.5, 3, 4, 6, 8, 12, 16 and 24 h post-dose after the first dose on Day 1 and the last dose on day 7. Additional PK samples prior to the morning doses were taken on Days 3-6. On the morning of Day 7, prior to dosing, an indwelling intrathecal catheter was inserted in the lumbar region (L3-L5). Serial CSF samples were collected through the catheter connected via peristaltic pump to a fraction collector. At each designated CSF collection time point, 8 mL of CSF was collected at a flow rate of 0.5 mL/min over a 16-min period at pre-dose, and 0.5, 1.0, 1.5, 2, 2.5, 3, 4, 6, 8, 12 and 24 h post-dose. The first 2 mL of CSF was discarded, and the remaining 6 mL was used for the vodobatinib assay. The occurrence of treatment-emergent adverse events (TEAEs) and serious AEs (SAEs) reported through the completion of study were collected. Clinical laboratory parameters, vital signs and physical examination data and electrocardiogram (ECG) were collected and evaluated relative to baseline values.
# [1] = 48 mg, Day 7, Healthy Volunteers
# [2] = 192 mg, Day 7, Healthy Volunteers
# [3] = 384 mg, Day 7, Healthy Volunteers
compound,measurement,setting,value
Cc1ccc(C(=O)NNC(=O)c2c(C)cccc2Cl)cc1C#Cc1cnc2ccccc2c1 [N′-(2-chloro-6-methylbenzoyl)-4-methyl-3-[2-(3-quinolyl)ethynyl]-benzohydrazide],CSF AUC0-24,"48 mg, Day 7",0.0183 µM·h
same,CSF AUC0-24 AM,48 mg,10.0 ng·h/mL
same,CSF AUC0-24 GM,48 mg,8.9 ng·h/mL
same,CSF AUC0-24 Median,48 mg,10.1 ng·h/mL
same,CSF Cmax AM,48 mg,0.8 ng/mL
same,CSF Cmax GM,48 mg,0.7 ng/mL
same,CSF Cmax Median,48 mg,0.8 ng/mL
same,CSF AUC0-24,[1],10.0 ng·h/mL
same,"Cavg, CSF",[1],(0.9 nM)
same,"Cmax, CSF",[1],(1.8 nM)
same,"Cmax, CSF","48 mg, Day 7, Healthy Volunteers, Table 11A",0.8 ng/mL
same,"Cmax, CSF/IC50",[1],2.0
same,"Cavg, CSF","48 mg, Day 7, Healthy Volunteers, estimated as AUC(0-24)/24",0.42 ng/mL
same,CSF concentrations at 2-3 h,"48 mg, healthy subjects",0.5 to 0.7 ng/mL
same,CSF AUC0-24,"192 mg, Day 7",0.1304 µM·h
same,CSF AUC0-24 AM,192 mg,74.5 ng·h/mL
same,CSF AUC0-24 GM,192 mg,59.2 ng·h/mL
same,CSF AUC0-24 Median,192 mg,64.5 ng·h/mL
same,CSF Cmax AM,192 mg,5.2 ng/mL
same,CSF Cmax GM,192 mg,4.6 ng/mL
same,CSF Cmax Median,192 mg,5.2 ng/mL
same,CSF AUC0-24,[2],74.5 ng·h/mL
same,"Cavg, CSF",[2],(6.8 nM)
same,"Cmax, CSF",[2],(11.5 nM)
same,"Cmax, CSF","192 mg, Day 7, Healthy Volunteers, Table 11A",5.2 ng/mL
same,"Cmax, CSF/IC50",[2],13
same,"Cavg, CSF","192 mg, Day 7, Healthy Volunteers, estimated as AUC(0-24)/24",3.3 ng/mL
same,CSF AUC0-24,"384 mg, Day 7",0.1201 µM·h
same,CSF AUC0-24 AM,384 mg,58.7 ng·h/mL
same,CSF AUC0-24 GM,384 mg,54.5 ng·h/mL
same,CSF AUC0-24 Median,384 mg,60.0 ng·h/mL
same,CSF Cmax AM,384 mg,5.5 ng/mL
same,CSF Cmax GM,384 mg,5.4 ng/mL
same,CSF Cmax Median,384 mg,5.1 ng/mL
same,CSF AUC0-24,[3],58.7 ng·h/mL
same,"Cavg, CSF",[3],(5.3 nM)
same,"Cmax, CSF",[3],(12.3 nM)
same,"Cmax, CSF","384 mg, Day 7, Healthy Volunteers, Table 11A",5.5 ng/mL
same,"Cmax, CSF/IC50",[3],14
same,"Cavg, CSF","384 mg, Day 7, Healthy Volunteers, estimated as AUC(0-24)/24",2.4 ng/mL
same,quantifiable CSF concentrations,"Day 7, 3 dose cohorts",observed in all subjects
same,Tmax,"48 mg, read-out: CSF Tmax Median",3 h
same,Tmax,"48 mg, read-out: CSF Tmax Min, Max",3 to 6.02 h
same,Tmax,"192 mg, read-out: CSF Tmax Median",6 h
same,Tmax,"192 mg, read-out: CSF Tmax Min, Max",2.03 to 6.01 h
same,Tmax,"384 mg, read-out: CSF Tmax Median",5 h
same,Tmax,"384 mg, read-out: CSF Tmax Min, Max",2.5 to 8.01 h
same,ratio of concentration in CSF to IC50 of c-Abl inhibition,therapeutically effective amount,not less than 1
